# Assay results from US8546434B2, “Triazole compounds as KSP inhibitors” (Novartis AG, priority 2010, dated 2013).
# Molecular target: motor domain of human KSP (Eg 5, KNSL1) (Homo sapiens (Human), UniProt P52732)
# Assay: Assay for determining KSP activity (microtubule-stimulated ATPase, Biomol Green phosphate detection)
# Assay type: biochemical
# Conditions: KSP motor domain 3 nM, bovine brain microtubules 50 μg/mL, 2 hours at RT, absorbance at 650 nm; read-out: Biological Activity (IC50)
# Procedure: This example provides a representative in vitro assay for determining KSP activity in vitro. Purified microtubules obtained from bovine brain were purchased from Cytoskeleton Inc. (Denver, Colo., USA). The motor domain of human KSP (Eg 5, KNSL1) was cloned, expressed, and purified to greater than 95% homogeneity. Biomol Green was purchased from BIOMOL International L.P. (Plymouth Meeting, Pa., USA). The microtubules were rapidly thawed at 37° C. for 10 minutes before making dilution. Microtubules and KSP motor protein (i.e., the KSP motor domain) were diluted in assay buffer (20 mM Tris-HCl (pH 7.5), 1 mM MgCl2, 10 mM DTT and 0.125% BSA) to a final concentration of 50 μg/mL microtubules and 3 nM KSP.
# To each well of the testing plate (96-well half area plate) containing 1.25 μL of inhibitor or test compound in DMSO (or DMSO only in the case of controls) were added 25 μL of ATP solution (ATP diluted to a concentration of 250 μM in assay buffer) and 25 μL of the above-described microtubule/KSP solution. The plates were incubated at RT for 2 hours. Following incubation, 65 μL of Biomol Green (a malachite green-based dye that detects the release of inorganic phosphate) with 0.015% Tween 20 was added to each well. The plates were incubated for an additional 15-20 minutes then the absorbance at 650 nm was determined using a Molecular Devices Spectrophotometer. The amount of absorbance at 650 nm corresponded to the amount of KSP activity in the samples. The IC50 of each inhibitor or test compound was then determined based on the decrease in absorbance at 650 nm at each concentration, via nonlinear regression using either XLFit for Excel or Prism data analysis software by GraphPad Software Inc.
# Chain of motor domain of human KSP (Eg 5, KNSL1) (P52732 18-359): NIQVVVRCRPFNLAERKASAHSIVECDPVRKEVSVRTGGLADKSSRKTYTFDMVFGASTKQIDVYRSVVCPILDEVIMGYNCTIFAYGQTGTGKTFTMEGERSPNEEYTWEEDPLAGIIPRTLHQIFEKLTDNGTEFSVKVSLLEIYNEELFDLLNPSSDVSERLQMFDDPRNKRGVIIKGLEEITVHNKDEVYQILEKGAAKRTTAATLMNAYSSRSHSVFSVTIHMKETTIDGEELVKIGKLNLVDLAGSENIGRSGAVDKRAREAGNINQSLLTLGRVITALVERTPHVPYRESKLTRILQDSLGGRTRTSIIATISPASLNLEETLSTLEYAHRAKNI
row,IC50,SMILES
1,0.96 nM,"CC(C)(C)[C@H](c1nc(-c2cc(F)ccc2F)nn1Cc1ccccc1)N(CC1CNC[C@@H]1F)C(=O)C1CCCO1 (stereo in doubt) [Compound 1, (S)—N—((R)-1-(1-benzyl-3-(2,5-difluorophenyl)-1H-1,2,4-triazol-5-yl)-2,2-dimethylpropyl)-N-(((3R,4R)-4-fluoropyrrolidin-3-yl)methyl)tetrahydrofuran-2-carboxamide]"
2,0.83 nM,"C[C@@H]1CN(C(=O)N(C[C@@H]2CNC[C@@H]2F)[C@@H](c2nc(-c3cc(F)ccc3F)nn2Cc2ccccc2)C(C)(C)C)C[C@H](C)O1 (stereo in doubt) [Compound 2, N—((R)-1-(1-benzyl-3-(2,5-difluorophenyl)-1H-1,2,4-triazol-5-yl)-2,2-dimethylpropyl)-N-(((3R,4R)-4-fluoropyrrolidin-3-yl)methyl)-2,6-dimethylmorpholine-4-carboxamide]"
3,0.74 nM,"C[C@@H]1CN(C(=O)N(C[C@@H]2CNC[C@@H]2F)[C@@H](c2nc(-c3cc(F)ccc3F)nn2Cc2cccc(F)c2)C(C)(C)C)C[C@H](C)O1 (stereo in doubt) [Compound 3, N—((R)-1-(3-(2,5-difluorophenyl)-1-(3-fluorobenzyl)-1H-1,2,4-triazol-5-yl)-2,2-dimethylpropyl)-N-(((3R,4R)-4-fluoropyrrolidin-3-yl)methyl)-2,6-dimethylmorpholine-4-carboxamide]"
4,0.6 nM,"C[C@H](O)C(=O)N(CC1CNC[C@@H]1F)[C@@H](c1nc(-c2cc(F)ccc2F)nn1Cc1ccccc1)C(C)(C)C (stereo in doubt) [Compound 4, (S)—N—((R)-1-(1-benzyl-3-(2,5-difluorophenyl)-1H-1,2,4-triazol-5-yl)-2,2-dimethylpropyl)-N-(((3R,4R)-4-fluoropyrrolidin-3-yl)methyl)-2-hydroxypropanamide]"
5,1.46 nM,"CC(C)(C)C(c1nc(-c2cc(F)ccc2F)nn1Cc1cccc(F)c1)N(CC1CNC[C@@H]1F)C(=O)C1CCCO1 (stereo in doubt) [Compound 5, (S)—N—((R)-1-(3-(2,5-difluorophenyl)-1-(3-fluorobenzyl)-1H-1,2,4-triazol-5-yl)-2,2-dimethylpropyl)-N-(((3R,4R)-4-fluoropyrrolidin-3-yl)methyl)tetrahydrofuran-2-carboxamide]"
6,0.83 nM,"C[C@H](O)C(=O)N(CC1CNC[C@@H]1F)[C@@H](c1nc(-c2cc(F)ccc2F)nn1Cc1cccc(F)c1)C(C)(C)C (stereo in doubt) [Compound 6, (S)—N—((R)-1-(3-(2,5-difluorophenyl)-1-(3-fluorobenzyl)-1H-1,2,4-triazol-5-yl)-2,2-dimethylpropyl)-N-(((3R,4R)-4-fluoropyrrolidin-3-yl)methyl)-2-hydroxypropanamide]"

# Same assay, conditions: KSP motor domain 3 nM, bovine brain microtubules 50 μg/mL, 2 hours at RT, absorbance at 650 nm; read-out: KSP IC50
row,SMILES,IC50
1,COC(C)(C)[C@H](c1nc(-c2cc(F)ccc2F)nn1Cc1cccc(F)c1)N(CC[C@H](N)CF)C(=O)[C@H](C)O [Compound 8],1.49 nM
2,COC(C)(C)[C@H](c1nc(-c2cc(F)ccc2F)nn1Cc1ccccc1)N(CC[C@H](N)CF)C(=O)[C@@H]1CCCO1 [Compound 11],1.4 nM
3,COC(C)(C)[C@H](c1nc(-c2cc(F)ccc2F)nn1Cc1ccccc1)N(CC[C@H](N)CF)C(=O)[C@H](C)O [Compound 14],2.34 nM

# Other lines, results leading:
row,IC50,SMILES
1,1.23 nM,COC(C)(C)[C@H](c1nc(-c2cc(F)ccc2F)nn1Cc1cccc(F)c1)N(CC[C@H](N)CF)C(=O)[C@@H]1CCCO1 [Compound 7]
2,49.4 nM,CCN1C[C@@H](CN(C(=O)[C@@H]2CCCO2)[C@@H](c2nc(-c3cc(F)ccc3F)nn2Cc2cccc(F)c2)C(C)(C)OC)[C@@H](F)C1 [Compound 9]
3,0.9 nM,COC(C)(C)[C@H](c1nc(-c2cc(F)ccc2F)nn1Cc1cccc(F)c1)N(C[C@@H]1CNC[C@@H]1F)C(=O)[C@@H]1CCCO1 [Compound 10]
4,0.87 nM,COC(C)(C)[C@H](c1nc(-c2cc(F)ccc2F)nn1Cc1cccc(F)c1)N(C[C@@H]1CNC[C@@H]1F)C(=O)[C@H](C)O [Compound 12]
5,0.69 nM,COC(C)(C)[C@H](c1nc(-c2cc(F)ccc2F)nn1Cc1ccccc1)N(C[C@@H]1CNC[C@@H]1F)C(=O)[C@@H]1CCCO1 [Compound 13]
